Measured values: patent EP0133795B1 (THE McLEAN HOSPITAL CORPORATION, priority 1983, dated 1985)

Columns and labels:
[1] = tested on: general motor activity of mice; experiment: General locomotor activity of mice (Stoelting electronic activity monitor); format: in vivo, Balb/c mice; settings: 500 µg administered intracisternally directly into the cerebrospinal fluid
[2] = tested on: bicuculline-induced epileptic seizures; experiment: Delay of onset of bicuculline-induced seizures (anticonvulsant activity); format: in vivo, mouse; settings: graded 0-5
Description: In a second behavioral test, the ability of a substance to prevent or delay the onset of biculline-induced epileptic seizures was measured. […] At 24 hr after i.p. injection of the cholesteryl derivative at a dose of 30 mg/kg (64 pmol/kg), the onset of seizures was delayed by 30% after an acute i.p. injection of bicuculline at 0.3 mg/kg. […] The dexamethasone and butyl esters had no effect.
The compounds were also injected i.p. at 1, 6 and 24 hr before the administration of bicuculline (0.3 mg/kg) s.c. The latency to the onset of generalized tonic-clonic epileptic seizures and the protection against the lethality of bicuculline were measured and evaluated as a percent of the data for vehicle-injected controls. No significant changes were obtained at the 1 hr and 6 hr time points. At the 24 hr time, however, some compounds delayed while others accelerated the onset of seizures.
The effect of the compound to delay the onset of a bicuculline-induced seizures was evaluated.
The ability of a substance to delay the onset of bicuculline-induced epileptic seizures in the mouse was measured (Table X). […] At 24 hr after i.p. injection of the cholesteryl derivative (6) at a dose of 30 mg/kg (64 pmol/kg), the onset of seizures was delayed by 30% (as compared to saline controls) after an acute i.p. injection of bicuculline at 0.3 mg/kg. […] The dexamethasone and butyl esters had no effect on seizures in mice.

[3] = Comparative brain/liver uptake of 14C-labeled compounds (Brain Penetration Index)
Description: The criterion used herein for measuring the extent to which a compound, from which the radical A is derived, crosses the blood-brain barrier is based on the uptake of this compound by the brain relative to its uptake by the liver. […] Measurements of the quantity of a compound present in brain and liver at 5 minutes after a subcutaneous (s.c.) injection were used to calculate a Brain Penetration Index (BPI), with the equation: [formula]
This is the amount of the compound present per gram of brain tissue as a percent of the amount per gram of liver tissue.
This procedure has the advantage that even for a sparingly soluble lipid ester, which tends to remain largely at the site of the injection and slowly diffuse into the circulation, its level in the liver will reflect the amount available rather than the initial dose injected.
The uptake of a ^14C-labeled compound into brain was compared with the uptake into liver of the same animal.
All determinations were carried out at 5 min after injection. The volumes of the injected doses into mice (body weight, 18-24 g) for the i.v., i.p., and s.c. doses were 0.15, 0.3 and 0.5 ml, respectively. […] Each tissue was homogenized in 8 ml of pyridine in a glass homogenizer.
Each labeled test compound was injected as a solution in 0.5 ml of saline (Compound 7) or in 25% propylene glycol in water (Compounds 1, 5, 6) subcutaneously (s.c.) into young adult Balb/c mice (18-24 g body weight). After 5 min (or longer) animals were sacrificed and the brain and liver removed, weighed and homogenized respectively in 8 ml and 10 ml of brain protein solvent (1 % (w/v) sodium dodecyl sulfate in 6 M urea and 19 mM EDTA, pH 7.4, 0.03 M phosphate). Aliquots (0.5 ml) of the homogenates were mixed with 10 ml of Aquasol 2 (New England Nuclear) and counted in a Beckman liquid scintillation counter. The total uptake of each compound per g brain and liver tissue was calculated. The proportion of uptake into brain as compared to liver (100%) of the same animal was designated as the Brain Penetration Index (BPI), expressed as a percentage typically at 5 min after injection.
Each of the ^14C-labeled Compounds 26, 28 and 30 were in 125 µl of the propylene glycol diluted with water up to 0.5 ml, and then injected subcutaneously into test Balb/c mice (20 ± 2 g weight). After 5 min the animals were sacrificed and the brain and liver were removed, weighed and homogenized in 8 ml and 10 ml of brain protein solvent, respectively. Next 0.5 ml aliquots were mixed with 10 ml of Aquasol 2 (New England Nuclear Corp., Boston, MA) and counted in a Beckman liquid scintillation counter. The data for the label in each tissue were used to calculate the total quantity of the compound present in brain and liver per gram of tissue. The ratio of the amount in brain as a percent of that present in liver at 5 min was taken as the Brain Penetration Index (BPI). Measurements at longer uptake times were also obtained to evaluate the accumulation of the compounds in the brain.

CAI pyramidal cells = format: cell-based, Sprague-Dawley rats
Description: Transverse slices of hippocampus (350-375 µm thick) were prepared from Sprague-Dawley rats (200-300 g) and transferred onto a nylon net fixed over a 1.5 ml superfusion chamber. The slices were maintained at 32-33°C in a humidified atmosphere of 95%/5% 02/C02. The standard medium consisted of (in mM): NaCl, 125; KCI, 3.5; CaC12,2; MgS04, 1.5; NaH2PO4, 1; NaHC03, 24; and glucose, 10. Low chloride medium was prepared by substituting sodium isethionate for sodium chloride.
Extracellular potentials were recorded with NaCI-fitted micropipettes, and stimulus pulses were applied through bipolar platinum wire electrodes. The various drugs were dissolved in fresh medium (without glucose and phosphate) and applied to the surface of the tissue by pressure ejection from a micropipette, Sakai, Swartz and Woody, (1979).
The inhibitory effectiveness of various compounds was investigated by measuring their ability to suppress the extracellular population spike recorded from the hippocampal CAI pyramidal layer and elicited by stimulation of stratum radiatum axons. The amplitude of this monosynaptic population spike is essentially proportional to the number of pyramidal cells discharging in response to a stimulus volley, Andersen, Bliss and Skrede, (1971).
The various compounds were applied as droplets to the pyramidal layer approximately 75 µm from the recording electrode. The volume of a single drug application was about 300 picoliters. […] The volume ejected from each pipette was calibrated prior to use by measuring the diameter of the ejected droplet and adjusting the duration of the pressure pulse (usually 100-500 msec) until a standard diameter was reached. A constant droplet volume was used throughout the experiments. Where dose-response information was required, several pipettes with different drug concentrations were used.

[4] = tested on: general motor activity of mice; experiment: General locomotor activity of mice (Stoelting electronic activity monitor); format: in vivo, Balb/c mice
Description: The effect of intraperitoneal (i.p.) injections of test compounds on the general motor activity of mice during a 60-min period was determined in a Stoelting electronic activity monitor. Dose-response curves were obtained from which the half-maximally effective values were calculated and the results are shown in Table V.
The compounds were dissolved in 25% (vols.) propylene glycol in water and injected i.p. into Balb/c mice (18-24 g). Dose-response measurements were obtained for 6 animals per dose or time point. Activity was monitored for 60 min using a Stoelting Electronic Activity Monitor (EAM) apparatus to assess the general motor activity of the animals.
The general locomotor activity of mice was measured in the Stolting activity monitor apparatus during 60 min after an intraperitoneal (i.p.) injection of a test compound.

general motor activity = settings: systemically injected doses of up to 1 g/kg (9.7 mmol/kg); previous experiments; cited from earlier work
[5] = Table VI, 270 μmol/kg s.c., 5 min, Balb/c mice

## NCCCC(=O)O [GABA, gamma-aminobutyric acid, reference compound]
[1]
  effect on general motor activity: no significant effect
[2]
  In Vivo Delay of Time of Onset of Bicuculline-induced seizures: 0
[3]; 30 μmol/kg i.v., 5 min, mouse
  (BRAIN): 0.04 nmol/g
  (LIVER): 4.2 nmol/g
  BPI (5 min): 0.95%
[3]; 60 μmol/kg i.p., 5 min, mouse
  (BRAIN): 0.23 nmol/g
  (LIVER): 29 nmol/g
  BPI (5 min): 0.80%
[3]; 120 μmol/kg i.p., 5 min, mouse
  (BRAIN): 0.45 nmol/g
  (LIVER): 46 nmol/g
  BPI (5 min): 1.00%
[3]; 160 μmol/kg i.p., 5 min, mouse
  (BRAIN): 0.66 nmol/g
  (LIVER): 71 nmol/g
  BPI (5 min): 0.93%
[3]; 210 μmol/kg i.p., 5 min, mouse
  (BRAIN): 0.83 nmol/g
  (LIVER): 83 nmol/g
  BPI (5 min): 1.00%
[3]; 270 μmol/kg s.c., 5 min, mouse
  (BRAIN): 1.03 nmol/g
  (LIVER): 104 nmol/g
  BPI (5 min): 1.00%
[3]; 380 μmol/kg s.c., 5 min, mouse
  (BRAIN): 1.81 nmol/g
  (LIVER): 165 nmol/g
  BPI (5 min): 1.10%
[3]; Table IX summary, 5-min Brain Penetration Index
  BPI: 1
[3]; [5]
  (BRAIN): 1.03 nmol/g
  (LIVER): 104 nmol/g
[3]; Table VI, 270 μmol/kg s.c., 5 min, Balb/c mice, mean ± S.E.M.
  BPI: 1±.09%
CAI pyramidal cells
  effect after incubation of slices in PMSF (0.5 mM) for about 45 min: no change
  effect with picrotoxin (10 µM) in the medium or low chloride medium: little effect
CAI pyramidal cells; after an approximately half-maximal dose
  recovery of the population spike amplitude to 90% of the pre-droplet control value: 1 to 2 min
CAI pyramidal cells; after droplet application
  time until recovery was usually complete: 2 to 3 min
[4]; 1.94 mmol/kg, i.p.
  effect on general motor activity: no significant effect
[4]; dose of 9.7 mmol/kg (1 g/kg)
  effect on general locomotor activity: no significant effect
General motor activity
  effect on motor activity in rats: little effect
